Columns and labels:
human 11β-HSD1 = biological target: T1, human 11β-HSD1 (Homo sapiens, UniProt P28845); experiment: Enzyme activity analysis on human 11β-HSD1 (HTRF cortisol, liver microsomes); assay type: biochemical; settings: first value of cell
T1 construct: 100 ug/ml human/mouse liver microsomes; from tissue; host or cells: human liver microsomes
In short: (§1)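 Cortisol generated by mouse or human liver microsome 11β-HSD1 during 2 h at 37° C., measured by HTRF competition (cryptate anti-cortisol antibody, d2-cortisol, 2 h room temperature) against a cortisol standard curve. IC50 from percent inhibition versus no-compound control.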

mouse 11β-HSD1 = biological target: T2, mouse 11β-HSD1 (Mus musculus, UniProt P50172); experiment: Enzyme activity analysis on mouse 11β-HSD1 (HTRF cortisol, liver microsomes); assay type: biochemical; settings: second value of cell
T2 construct: 100 ug/ml human/mouse liver microsomes; from tissue; host or cells: mouse liver microsomes
T2 sequence (P50172 whole entry): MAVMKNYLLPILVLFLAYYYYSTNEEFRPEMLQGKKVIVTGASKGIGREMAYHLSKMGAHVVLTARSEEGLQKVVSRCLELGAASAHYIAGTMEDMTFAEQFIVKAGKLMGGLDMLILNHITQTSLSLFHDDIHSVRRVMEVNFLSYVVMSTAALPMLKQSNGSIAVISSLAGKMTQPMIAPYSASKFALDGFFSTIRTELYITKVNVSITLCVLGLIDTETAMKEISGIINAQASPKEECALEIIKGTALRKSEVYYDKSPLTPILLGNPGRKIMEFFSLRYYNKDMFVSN
In short: as §1

T1 sequence (P28845 whole entry): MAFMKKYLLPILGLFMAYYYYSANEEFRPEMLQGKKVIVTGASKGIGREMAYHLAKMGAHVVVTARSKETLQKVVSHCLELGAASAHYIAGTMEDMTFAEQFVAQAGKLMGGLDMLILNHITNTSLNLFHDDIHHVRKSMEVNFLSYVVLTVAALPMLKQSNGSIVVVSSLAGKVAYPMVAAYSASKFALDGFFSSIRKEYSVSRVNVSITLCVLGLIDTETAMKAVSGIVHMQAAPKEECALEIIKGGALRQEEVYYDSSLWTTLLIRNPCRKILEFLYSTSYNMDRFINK

IC50 (human 11β-HSD1) [µM]	IC50 (mouse 11β-HSD1) [µM]	Structure (SMILES)
0.015	0.04	Cc1c(Cl)cccc1S(=O)(=O)NC1(C(=O)NC2C3CC4CC2CC(C(N)=O)(C4)C3)CCC1 (centres unmarked) [compound 149, N-4-(1-(2-methyl-3-chlorophenylsulfonamido)cyclobutanecarboxyamido)adamantane-1-carboxyamide]
0.017	0.044	NC(=O)C12CC3CC(C1)C(NC(=O)C1(NS(=O)(=O)c4cccc(Cl)c4Cl)CCCCC1)C(C3)C2 (centres unmarked) [compound 183, N-4-(1-(2,3-dichlorophenylsulfonamido)cyclohexanecarboxyamido)adamantane-1-carboxyamide]
0.03	0.221	CC(C)(NS(=O)(=O)c1ccc(Cl)cc1Cl)C(=O)NC1C2CC3CC1CC(O)(C3)C2 (centres unmarked) [compound 81, N-(5-hydroxyadamantane-2-yl)-2-methyl-2-(2,4-dichlorophenylsulfonamido)propanamide]
0.036	0.313	Cc1ccccc1S(=O)(=O)NC(C)(C)C(=O)NC1C2CC3CC(C2)CC1C3 (centres unmarked) [compound 15, N-(adamantane-2-yl)-2-methyl-2-(2-methylphenylsulfonamido)propanamide]
0.01	0.039	CN(C(C)(C)C(=O)NC1C2CC3CC1CC(O)(C3)C2)S(=O)(=O)c1cccc(Cl)c1Cl (centres unmarked) [compound 203, N-(5-hydroxyadamantane-2-yl)-2-(2,3-dichloro-N-methylphenylsulfonamido)-2-methylpropanamide]
0.018	0.058	NC(=O)C12CC3CC(C1)C(NC(=O)C1(NS(=O)(=O)c4cccc(Cl)c4Cl)CCC1)C(C3)C2 (centres unmarked) [compound 158, N-4-(1-(2,3-dichlorophenylsulfonamido)cyclobutanecarboxyamido)adamantane-1-carboxyamide]
0.034	0.255	CC(C)(NS(=O)(=O)c1ccccc1F)C(=O)NC1C2CC3CC(C2)CC1C3 (centres unmarked) [compound 16, N-(adamantane-2-yl)-2-methyl-2-(2-fluorophenylsulfonamido)propanamide]
0.02	0.051	CC(C)(NS(=O)(=O)c1ccccc1Br)C(=O)NC1C2CC3CC(C2)CC1C3 (centres unmarked) [compound 12, N-(adamantane-2-yl)-2-methyl-2-(2-bromophenylsulfonamido)propanamide]
0.03	0.049	Cc1ccccc1S(=O)(=O)NC1(C(=O)NC2C3CC4CC2CC(C(N)=O)(C4)C3)CCCC1 (centres unmarked) [compound 169, N-4-(1-(2-methylphenylsulfonamido)cyclopentanecarboxyamido)adamantane-1-carboxyamide]
0.009	0.974	CCN(C(C)(C)C(=O)NC1C2CC3CC1CC(C(N)=O)(C3)C2)S(=O)(=O)c1ccccc1[N+](=O)[O-] (centres unmarked) [compound 216]
0.022	0.007	NC(=O)C12CC3CC(C1)C(NC(=O)C1(NS(=O)(=O)c4cccc5cccnc45)CCCC1)C(C3)C2 (centres unmarked) [compound 168, N-4-(1-(quinoline-8-sulfonamido)cyclopentanecarboxyamido)adamantane-1-carboxyamide]
0.051	0.583	CC(C)(NS(=O)(=O)c1ccc(F)cc1C(F)(F)F)C(=O)NC1C2CC3CC(C2)CC1C3 (centres unmarked) [compound 32, N-(adamantane-2-yl)-2-methyl-2-(4-fluoro-2-trifluoromethylphenylsulfonamido)propanamide]
0.006	1.44	CCN(C(C)(C)C(=O)NC1C2CC3CC1CC(C(N)=O)(C3)C2)S(=O)(=O)c1ccccc1C(F)(F)F (centres unmarked) [compound 210, N-4-(2-(2-trifluoromethyl-N-ethylphenylsulfonamido)-2-methylpropanamido)adamantane-1-carboxyamide]
0.111	0.138	CC(C)(NS(=O)(=O)c1ccccc1C(F)(F)F)C(=O)NC1C2CC3CC1CC(O)(C3)C2 (centres unmarked) [compound 72, N-(5-hydroxyadamantane-2-yl)-2-methyl-2-(2-trifluoromethylphenylsulfonamido)propan amide]
0.023	0.143	Cc1c(Cl)cccc1S(=O)(=O)N(C)C(C)(C)C(=O)NC1C2CC3CC(C2)CC1C3 (centres unmarked) [compound 200, N-(adamantane-2-yl)-2-(3-chloro-2-methyl-N-methylphenylsulfonamido)-2-methylpropanamide]
0.004	0.042	Cc1c(Cl)cccc1S(=O)(=O)N(C)C(C)(C)C(=O)NC1C2CC3CC1CC(O)(C3)C2 (centres unmarked) [compound 204, N-(5-hydroxyadamantane-2-yl)-2-(2-methyl-3-chloro-N-methylphenylsulfonamido)-2-methylpropanamide]
0.409	1.06	CC(C)(NS(=O)(=O)c1ccc(Cl)cc1F)C(=O)NC1C2CC3CC(C2)CC1C3 (centres unmarked) [compound 31, N-(adamantane-2-yl)-2-methyl-2-(4-chloro-2-fluorophenylsulfonamido)propanamide]

IC50 (human 11β-HSD1) [µM]	IC50 (mouse 11β-HSD1) [µM]	Structure (SMILES)
> 2.5	1.44	O=C(NC1C2CC3CC(C2)CC1C3)C1(NS(=O)(=O)c2cccc([N+](=O)[O-])c2)CCC1 (centres unmarked) [compound 142, N-(adamantane-2-yl)-1-(3-nitrophenylsulfonamido)cyclobutanecarboxyamide]
0.006	0.079	CCN(C(C)(C)C(=O)NC1C2CC3CC1CC(C(N)=O)(C3)C2)S(=O)(=O)c1ccccc1F (centres unmarked) [compound 211, N-4-(2-(2-fluoro-N-ethylphenylsulfonamido)-2-methylpropanamido)adamantane-1-carboxyamide]
0.091	> 2.5	CC(C)(NS(=O)(=O)c1cc(Cl)ccc1Cl)C(=O)NC1C2CC3CC(C2)CC1C3 (centres unmarked) [compound 9, N-(adamantane-2-yl)-2-methyl-2-(2,5-dichlorophenylsulfonamido)propanamide]
0.008	0.002	CN(C(C)(C)C(=O)NC1C2CC3CC1CC(C(N)=O)(C3)C2)S(=O)(=O)c1c(Cl)cccc1Cl (centres unmarked) [compound 192, N-4-(2-(2,6-dichloro-N-methylphenylsulfonamido)-2-methylpropanamido)adamantane-1-carboxyamide]
0.004	0.098	CCN(C(C)(C)C(=O)NC1C2CC3CC1CC(C(N)=O)(C3)C2)S(=O)(=O)c1ccccc1Cl (centres unmarked) [compound 217]
0.009	0.006	Cc1c(Cl)cccc1S(=O)(=O)N(C)C(C)(C)C(=O)NC1C2CC3CC1CC(C(N)=O)(C3)C2 (centres unmarked) [compound 191, N-4-(2-(2-methyl-3-chloro-N-methylphenylsulfonamido)-2-methylpropanamido)adamantane-1-carboxyamide]
0.021	0.021	NC(=O)C12CC3CC(C1)C(NC(=O)C1(NS(=O)(=O)c4c(Cl)cccc4Cl)CC1)C(C3)C2 (centres unmarked) [compound 134, N-4-(1-(2,6-dichlorophenylsulfonamido)cyclopropanecarboxyamido)adamantane-1-carboxyamide]
0.038	0.12	NC(=O)C12CC3CC(C1)C(NC(=O)C1(NS(=O)(=O)c4ccccc4)CCCC1)C(C3)C2 (centres unmarked) [compound 171, N-4-(1-(phenylsulfonamido)cyclopentanecarboxyamido)adamantane-1-carboxyamide]
0.085	0.117	CC(C)(NS(=O)(=O)c1ccccc1N)C(=O)NC1C2CC3CC1CC(C(N)=O)(C3)C2 (centres unmarked) [compound 219, N-4-(2-(2-aminophenylsulfonamido)-2-methylpropanamido)adamantane-1-carboxyamide]
0.046	0.138	Cc1ccccc1S(=O)(=O)NC1(C(=O)NC2C3CC4CC2CC(C(N)=O)(C4)C3)CCC1 (centres unmarked) [compound 156, N-4-(1-(2-methylphenylsulfonamido)cyclobutanecarboxyamido)adamantane-1-carboxyamide]
0.012	0.088	CN(C(C)(C)C(=O)NC1C2CC3CC(C2)CC1C3)S(=O)(=O)c1ccccc1C(F)(F)F (centres unmarked) [compound 201, N-(adamantane-2-yl)-2-(2-trifluoromethyl-N-methylphenylsulfonamido)-2-methylpropan amide]
0.005	0.235	CCN(C(C)(C)C(=O)NC1C2CC3CC1CC(C(N)=O)(C3)C2)S(=O)(=O)c1c(F)cccc1F (centres unmarked) [compound 213, N-4-(2-(2,6-difluoro-N-ethylphenylsulfonamido)-2-methylpropanamido)adamantane-1-carboxyamide]
0.04	0.453	NC(=O)C12CC3CC(C1)C(NC(=O)C1(NS(=O)(=O)c4ccc(Br)cc4Cl)CCC1)C(C3)C2 (centres unmarked) [compound 162, N-4-(1-(2-chloro-4-bromophenylsulfonamido)cyclobutanecarboxyamido)adamantane-1-carboxyamide]
0.163	0.056	NC(=O)C12CC3CC(C1)C(NC(=O)C1(NS(=O)(=O)c4ccccc4)CCC1)C(C3)C2 (centres unmarked) [compound 148, N-4-(1-(phenylsulfonamido)cyclobutanecarboxyamido)adamantane-1-carboxyamide]
1.3	0.505	NC(=O)C12CC3CC(C1)C(NC(=O)C1(NS(=O)(=O)c4ccc([N+](=O)[O-])c(C(F)(F)F)c4)CCC1)C(C3)C2 (centres unmarked) [compound 147, N-4-(1-(3-trifluoromethyl-4-nitrophenylsulfonamido)cyclobutanecarboxyamido)adamantane-1-carboxyamide]
0.008	0.037	NC(=O)C12CC3CC(C1)C(NC(=O)C1(NS(=O)(=O)c4ccccc4Cl)CCCCC1)C(C3)C2 (centres unmarked) [compound 179, N-4-(1-(2-chlorophenylsulfonamido)cyclohexanecarboxyamido)adamantane-1-carboxyamide]
0.101	0.29	Cc1ccc(F)cc1S(=O)(=O)NC1(C(=O)NC2C3CC4CC2CC(C(N)=O)(C4)C3)CCC1 (centres unmarked) [compound 165, N-4-(1-(2-methyl-5-fluorophenylsulfonamido)cyclobutanecarboxyamido)adamantane-1-carboxyamide]

From patent publication US9073830B2 (Hyundai Pharm Co., Ltd., priority 2011, dated 2015)
